The target of one experiment is human 5-HT2A receptor (Homo sapiens (Human), UniProt P28223). Nature of the experiment: Radioligand binding assay on human 5-HT2A receptor ([3H]-ketanserin). The protocol: i. Prepare the assay buffer following the table below;
ii. Preparation of 8 doses of reference and test compounds starting from 10 mM stock solution as requested by 5-fold serial dilutions with 100%;
iii. […] a. Add 50 μl/well of 0.5% (v/v) PEI to UniFilter-96 GF/B plates. Seal the plates and incubate at 4° C. for 3 hrs; b. After incubation, wash the plates 3 times with ice-cold wash buffer (50 mM Tris, pH7.4);
iv. Preparation of assay plates: a. Dilute cell membrane with assay buffer and add 330 μl/well to 96 round deep well plates to reach a concentration of 20 μg/well; b. […] Dilute [3H]-ketanserin with assay buffer to 5 nM (5× final concentration) and add 110 μl/well to 96 round deep well plates.
v. Centrifuge the plate at 1000 rpm for 30 secs and then agitate at 600 rpm, R.T. for 5 min.
vii. Stop the incubation by vacuum filtration onto GF/B filter plates followed by 4 times washing with ice-cold wash buffer (50 mM Tris, pH7.4).
ix. […]
For reference and exemplary test compounds of the application, the results are expressed as % Inhibition, using the normalization equation: N=100−100×(U−C2)/(C1−C2), where U is the unknown value, C1 is the average of high controls, and C2 is the average of low controls. The IC50 is determined by fitting percentage of inhibition as a function of compound concentrations with Hill equation using XLfit.

The next experiment concerns male C57 BL6 mice. Nature of the experiment: Mouse head-twitch response (HTR). The conditions noted are these: head twitches over a 1 h period, FIG. 1 and FIG. 2. The class given is in vivo. The method, then:
FIG. 1 is a graph showing the effect of various doses of exemplary compound of Formula I, I-28, on head-twitch response (HTR) in male C57 BL6 mice. The mice were treated with compound I-28 ([…]) by PO route (N=6 mice/dose), and the total number of head twitches were recorded over a 1 h period. Data is expressed as mean±SEM. The induction of head twitches elicited by 5-HT2A receptor agonists is believed to represent a behavioural proxy of their psychedelic effects.
The mice were treated with compound MSP-1007 (0.03-10 mg/kg) by SC route (N=6 mice/dose), and the total number of head twitches were recorded over a 1 h period. Data is expressed as mean±SEM. […]
The effect of different doses of exemplary compound I-28 of Formula I and its active metabolite were evaluated on head-twitch response (HTR) as a behavior-based model of psychedelic activity.
Male, C57 BL/6 J mice (body weight range 20-30 g) were dosed with the appropriate dose of test article, and following a 1-minute pre-treatment time, placed in individual observation chambers. Animals were visually assessed for the incidence head twitches continuously over a 1 hr period. […] Each head twitch was individually counted by a trained observer, and the data expressed as the mean±SEM of 6-10 mice per group. […]

`[2H]C([2H])([2H])N(C([2H])([2H])[2H])C([2H])([2H])C([2H])([2H])c1c[nH]c2cccc(OC(=O)CCCCCCC/C=C\C/C=C\CCCCC)c12` [Compound I-28, 3-(2-(bis(methyl-d3)amino)ethyl-1,1,2,2-d4)-1H-indol-4-yl (9Z,12Z)-octadeca-9,12-dienoate]: the half-maximal inhibitory concentration (IC50) on human 5-HT2A receptor stood at 516 nM.
Take `[2H]C([2H])([2H])N(C([2H])([2H])[2H])C([2H])([2H])C([2H])([2H])c1c[nH]c2cccc(O)c12` [Compound I-45, 3-(2-(bis(methyl-d3)amino)ethyl-1,1,2,2-d4)-1H-indol-4-ol]: the “efficacy to induce head twitch (in words)” value in the experiment on male C57 BL6 mice is “greater efficacy to induce head twitch than the exemplary prodrug I-28”.

By IC50 is commonly meant the concentration at which inhibition is half-maximal.

These data come from patent US11591353B2 (Mindset Pharma Inc., priority 2020, dated 2023).
